{"source": "patent US20020182717A1", "about": "“Method of preparing supported lipid film membranes and use thereof” (Biacore AB, priority 2001, published 2002)", "target": "T1, rhodopsin (Bos taurus, UniProt P02699)", "T1 construct": "Gift: Dr. Andreas von Usedom, Institute for Medical Physics and Biophysics, Humboldt University, Berlin", "T1 sequence (P02699 whole entry)": "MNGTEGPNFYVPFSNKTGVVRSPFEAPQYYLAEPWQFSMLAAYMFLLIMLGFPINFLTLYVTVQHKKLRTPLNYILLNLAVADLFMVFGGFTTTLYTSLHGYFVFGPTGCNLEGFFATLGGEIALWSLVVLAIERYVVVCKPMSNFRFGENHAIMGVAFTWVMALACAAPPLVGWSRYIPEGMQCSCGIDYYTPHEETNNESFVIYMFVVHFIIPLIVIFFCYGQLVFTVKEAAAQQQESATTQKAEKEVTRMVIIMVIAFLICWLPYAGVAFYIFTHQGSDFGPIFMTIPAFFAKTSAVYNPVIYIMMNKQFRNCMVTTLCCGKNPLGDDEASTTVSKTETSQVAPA", "experiment": "Assay for rhodopsin functionality (transducin dissociation on illumination, SPR, BIACORE X)", "format": "biochemical", "settings": "10 μM 9-cis-retinal, after extended illumination and over night incubation", "protocol": "In order to judge if the rhodopsin has a native and functional conformation after immobilization and supplementation with lipids as described in steps A and B above, its signaling capacity was assayed. When rhodopsin is activated by light, it transmits its signal by activating transducin. Activated transducin dissociates from the membrane under consumption of GTP (Heyse, S., et al., Biochemistry (1998) 37:507-522).\nMeasurements of transducin dissociation by activated rhodopsin were performed in a BIACORE X instrument into which an optical fiber had been inserted for illumination of the flow cells. The instrument temperature was set to 20° C. All the operations were performed under safe red light. […]\nThis solution was injected at 5 μl/min over both the rhodopsin and the reference flow cells in the manual mode. Upon injection, transducin bound readily to both the rhodopsin-POPC surface and the POPC reference surface, but when the injection was finished it dissociated very rapidly from the surface into the mobile phase of running buffer. […] The activation of the receptor was recorded as a surface mass decrease caused by dissociation of the activated transducin from the membrane. […]", "data": [{"smiles": "CC1=C(/C=C/C(C)=C\\C=C\\C(C)=C\\C=O)C(C)(C)CCC1", "note": "[9-cis-retinal]", "values": [{"measurement": "signalling capacity of exhausted reconstituted rhodopsin after ligand injection", "result": "recovery of the signalling capacity"}]}]}
